SMILES strings stand for the structures.

For `Cn1cc(C(=O)NCc2ccc(Cl)cc2)c(=O)c2cc(CN(CCO)Cc3ccccc3)ccc21`, the melting point (usually the temperature of the solid-liquid transition) was 133 to 135 °C. Regarding `Cc1c(Cc2ccc([N+](=O)[O-])cc2)c(=O)oc2cc(O)cc(O)c12`, the melting point lay in the range of 280 to 285 °C. The value for `O=C(c1cc(C(F)(F)F)cc(C(F)(F)F)c1)N1CCC(N2CCN(Cc3ccccc3)CC2)CC1Cc1ccccc1` (stereo not drawn) was 144 °C. Under `CC(C)Cn1c(CCCCNC(=O)N2CCOCC2)nc2c(N)nc3ccccc3c21` stands 97 to 100 °C; under `CCOc1ccc(OCC)c(C[C@@H](C(=O)[C@H](Cc2cc(OCC)ccc2OCC)N2C(=O)c3ccccc3C2=O)N2C(=O)c3ccccc3C2=O)c1`, 92 to 93 °C. `CCCc1c(C(=O)N(C)Cc2ccc3cc(O)ccc3c2)cnn1-c1ccccc1` had a melting point of 138 to 141 °C. The value for `Cc1nc2c(c3c1[nH]c1ccccc13)C(=NO)CC(C)(C)C2` was 293 to 294 °C. As for `O=C(OCc1ccccc1)c1ncoc1CCNC(=O)[C@H](Cc1cccs1)N[C@@H](CCc1ccccc1)C(=O)OCc1ccccc1`, the melting point was 81 to 83 °C. The value for `O=C(NC(=S)Nc1cccc(Oc2ccccc2)c1)c1cccnc1` was 144 to 146 °C; that for `Cn1cc(-c2ccccc2)c(=O)c(-c2ccccc2Cl)c1` was 145 °C. Under `COc1cc(C(=O)NNC(=O)c2occ(-c3ccccc3)c2-c2ccccc2)ccc1OCc1ccccc1` stands 203 to 204 °C; under `O=C(O)COCc1nn(-c2ccc(Cl)cc2)c2c1CCC2`, 122 to 123 °C; under `CCP1(=O)c2ccccc2CN1c1ccccc1` (stereo not drawn), 116 to 120 °C.

As to `CCOC(=O)CN(CC(=O)OCC)c1ccc(C=O)c(O)c1`, the melting point is 190 °C. Under `CCC(C)Nc1ccc([N+](=O)[O-])cc1[N+](=O)[O-]` (stereo not drawn) stands 53 to 55 °C; under `CC(=O)Nc1nc(C#N)cs1`, 185 to 188 °C; under `CC(=O)O/N=C1\CCc2ccccc2C1=Cc1ccc(S(C)(=O)=O)cc1`, 70 to 73 °C. Under `Cc1n[nH]c(=O)c(-c2c(F)cc(F)cc2F)c1Cc1ccc(Cl)cc1` stands 212 to 215 °C; under `O=C(OCC(Cl)(Cl)Cl)N1C2CCC1CC(Sc1ccc(Cl)cc1)C2` (stereo not drawn), 70 to 71.5 °C.

On to `CN(Cc1cn[nH]c1)C1CCN(C(=O)c2ccc(Nc3nccc(Nc4ccc(F)cc4)n3)cc2)CC1`, for which the melting point lay within 140 to 145 °C. The value for `Cc1c(NC(=O)CC(C)(C)C)c(C)c2c(c1C(=O)O)OCC2c1ccc(C(C)C)cc1` (stereo not drawn) was 194 to 195 °C.

On to `C#CCOc1cc(-n2nnn(CC)c2=O)c(Cl)cc1F`, for which the melting point lay within 88 to 89 °C. The value for `COc1cc(NC(=O)C#Cc2ccc(C(F)(F)F)cc2Cl)ccc1OCCN1CCC(OC)CC1` was 195 to 197 °C; that for `CCCCOc1ccc(S(=O)(=O)N2CCN(C)CC2)cc1-c1nc2cc3nc[nH]c3cc2c(=O)[nH]1` was 124 to 126 °C. Under `Cn1cc2c(n1)Nc1ccc(Cl)cc1NC2=O` stands more than 260 °C. The value for `CCOC(=O)c1c(C)cc2c(c1C)C(=O)OC2(C)O` (stereo not drawn) was 118 to 120 °C; that for `O=C(Oc1ccccc1)N1CCCc2nc3ccccc3c(Cl)c2C1` was 137 °C; that for `COCCCn1nnnc1-c1cc(-c2ccccc2C(F)(F)F)c(O)cc1O` was 207 to 210 °C. On to `O=C(NCCCN1NC=NN1)c1ccccc1[N+](=O)[O-]`, for which the melting point was in the range of 148 to 150 °C. The value for `CC1=NC(NC(=O)OCc2ccccc2)C(=O)N(CC(=O)C(C)(C)C)c2ccccc21` (stereo not drawn) was 68 °C; that for `CCC1(CCC(=O)OC)CCCN2CCc3c([nH]c4ccccc34)C21` (stereo not drawn) was 110 °C. Under `CCCCCCCCCCCCc1csc(-c2c(Cl)c(Cl)c(-c3cc(CCCCCCCCCCCC)cs3)c3nsnc23)c1` stands 79 to 80 °C; under `Cc1[nH]c2ccc(S(=O)(=O)c3cc(F)cc(F)c3)cc2c1CCNC(=O)OC(C)(C)C`, 201 to 204 °C.

As for `CS(=O)(=O)Oc1ccc2c(c1)[nH]c(=O)c1c3ccc(OS(C)(=O)=O)cc3oc21`, the melting point was more than 300 °C. In the case of `CC(C)(C)NC(=O)c1ccccc1C(c1ccc(O)cc1)c1ccc(O)cc1`, the melting point was in the range of 264 to 266 °C.

Compound `CCCCCCCCCCCCCCOC(=O)CS(=O)(=O)Nc1c(C(C)C)cccc1C(C)C` returned a melting point of 53 to 55 °C. Under `CC(C)Nc1nc2cc(F)c(F)c(F)c2n1[C@@H]1O[C@H](C)[C@@H](O)[C@H]1O` stands 175 to 178 °C; under `COc1ccc(C)cc1NC(=O)Nc1ccc(N2CCN(C(=O)C3CCCCC3C)CC2)cc1` (stereo not drawn), 208 to 209 °C; under `CSc1nn2c(N(C)C)cc(C)nc2c1S(=O)(=O)c1ccc(C(C)C)cc1`, 222 to 224 °C. Under `CC(=O)OC1CSC(Oc2ccc(-c3cncc(Cl)c3)nc2)C(OC(C)=O)C1OC(C)=O` (stereo not drawn) stands 203 to 205 °C; under `COC(=O)Nc1ccc2ccccc2c1-c1c(P(=O)(c2ccccc2)c2ccccc2)ccc2ccccc12`, 128 °C. The value for `CC(Cc1n[nH]c(=O)c2ccccc12)c1cccnc1` (stereo not drawn) was 142 °C. `Cc1cc(C(F)(F)F)nn1CC(=O)N1CCC(c2nc(C3=NOC(c4cccc(-n5cncn5)c4)C3)cs2)CC1` (stereo not drawn) displayed a melting point of 83 to 85 °C. Under `O=C(Nc1cccc2cnccc12)NC1CC2(CCOCC2)Oc2ccccc21` (stereo not drawn) stands 220 °C. Under `COc1ccc(S(=O)(=O)n2ccc3ccccc32)cc1` stands 124 to 126 °C; under `O=C(Cc1ccc(-c2ccc(C(CC3CCOCC3)c3ccc(S(=O)(=O)C4CC4)cc3)[nH]2)nc1)N1CCC1` (stereo not drawn), 94 to 98 °C; under `CC(NC1=NS(=O)(=O)c2ccc(Cl)cc2N1)C(C)(C)C` (stereo not drawn), more than 220 °C. `CC(=O)OC(c1nc2c(C(F)(F)F)cccc2c(O)c1C(=O)Nc1ccccn1)C(C)C` (stereo not drawn): the melting point turned out to be 230 °C. Under `CCCc1nnc(-c2ccc([N+](=O)[O-])cc2)n1-c1ccc(OC)cc1` stands 140 °C; under `FC(F)(F)c1nc2nc(Cl)c(Cl)cc2[nH]1`, 222 to 224 °C; under `Cc1c(NC(=O)c2ccc(CC(=O)C3CCOC3)cc2)ccc2cc(CN3CCCC3)cnc12` (stereo not drawn), 142 to 143 °C. Take `Clc1ccnc2[nH]c(CCc3ccccc3)cc12`: the melting point lay within 159 to 160 °C. Take `CCOc1c(CN2CCCCC2)c2c(c3c1OC(C)(C)C3)C(c1cccc(NC(=O)c3ccccc3C(=O)O)c1)=NC(C)(C)C2`: the melting point fell in the range of 155 to 157 °C.

In the case of `O=C(NCCO)c1ccc(OCC2(O)CCN(Cc3ccccc3)CC2)cc1`, the melting point is 161 °C. Under `CN(C)c1nccc(-c2cccnc2)n1` stands 230 to 241 °C; under `O=C(Oc1cccc(OC(=O)c2cc(O)c(O)c(O)c2)c1)c1cc(O)c(O)c(O)c1`, 194 to 195 °C; under `O=c1[nH]cnc2c1sc(=O)n2C1OC(CO)C(O)C1O` (stereo not drawn), 216 to 218 °C. The value for `CC(C)c1cc(C(C)C)c(CCC(=O)O)c(C(C)C)c1` was 194 to 196 °C; that for `CS(=O)(=O)c1ccc(-c2sc(CCc3ccccc3)nc2-c2ccc(F)cc2)cc1` was 153 to 154 °C. In turn, `COC(=O)c1nc(CCl)n(-c2ccc(Cl)cc2C(=O)c2ccccc2Cl)n1` yielded a melting point of 130 to 132 °C.

In turn, `CSC(C(=O)N(C)C)c1cccc(C(=O)c2ccccc2)c1N` (stereo not drawn) had a melting point of 153 to 155 °C.

As to `O=C(CC1CCCCC1)Nc1c(Cl)ccc2nc(N3CC[C@H](NCCc4nn[nH]n4)C3)ccc12`, the melting point was 220 to 221 °C. Under `COc1cc2cc(CO)c(CO)c(-c3ccnc(-n4c(=O)cc(C(=O)O)c5ccccc54)c3)c2cc1OC` stands more than 250 °C; under `NNc1ccc2c(=O)n(Cc3ccccc3)cnc2c1`, 165 to 169 °C.

Regarding `COc1cccc(CC(=O)O)c1OCCCc1cn(-c2ccc(NS(C)(=O)=O)cn2)nc1C(C)C`, the melting point lay within 176 to 177 °C. The value for `CCCNC(=O)n1nc(Oc2ncc(C(F)(F)F)cc2Cl)c(Cl)c1C` was 54 to 56 °C; that for `CCc1cc2c(cc1F)c(S(C)(=O)=O)c(-c1ccc(S(=O)(=O)NC(C)(C)C)cn1)n2-c1ncccn1` was 244 to 248 °C. Under `O=C(O)C[S@](=O)C(c1ccccc1)c1ccccc1` stands 118 to 120 °C; under `Cc1cc(C)n(C)c1C(=O)C(C#N)C(=O)Nc1ccccc1` (stereo not drawn), 106 to 107 °C.

`CC(=O)Nc1cc(F)ccc1F` gave a melting point of 124 to 125 °C. The value for `COC(=O)c1sc(C)c(O)c1O` was 116 to 117 °C. The value for `COc1ccc(C(=O)Nc2cccnc2)cc1N` was 193 to 196 °C; that for `CCCCc1nn(-c2cc(NC(=O)CC)ccc2Cl)c(=O)n1Cc1ccc(-c2ccccc2S(=O)(=O)NC(=O)c2occ(Cl)c2Cl)cc1` was 223 to 226 °C; that for `COc1ccc(C(=O)C=Cc2ccccc2)cc1C=CC(=O)O` was 204 °C.

For `Cc1ccc(C23CN(C)CC2CC32SCCS2)cc1` (stereo not drawn), the melting point fell in the range of 81 to 86 °C. The value for `COc1cc(COc2ccc3nc(NC(=O)OCCN(C)C)cn3n2)cc(OC)c1OC` was 185 to 186 °C; that for `COc1cc2[nH]c(N(C)Cc3cccc(C4=NCCN4C)c3)nc(=O)c2c(C)c1OC` was 145 to 148 °C. Under `O=C1N(Cc2nnc(Cl)s2)c2ccccc2C12COc1cc3c(cc12)OCO3` (stereo not drawn) stands 194 to 197 °C; under `O=C(Nc1ccccc1)N1CCc2[nH]c3c(cnc4cc(Cl)ccc43)c2C1`, more than 260 °C. `COc1cc(C(C)C(=O)O)cc2ccc3ccccc3c(=O)c12` (stereo not drawn) returned a melting point of 144 to 147 °C. Under `CCCCc1c(C(=O)N(C)Cc2ccc3c(Br)c(O)ccc3c2)oc2ccccc12` stands 53 to 56 °C; under `CC(C)Cn1cnc2c(N)nc3c(c21)NCCC3`, 222 to 226 °C; under `COc1cc(OC)cc(C(=O)NC(NC(=NC#N)Nc2ccc(Cl)nc2)C(C)(Cl)Cl)c1` (stereo not drawn), 193 to 195 °C.

Values taken from a melting point compilation (Tetko et al.; mined from patent text by program, amines drawn as free bases though some values may be those of a salt).
